Results on three compounds are retold here after BindingDB's records for patent US20240400586 (Haisco Pharmaceutical Group, 2024).

Sequence of Poly [ADP-ribose] polymerase 1 (P09874 whole entry): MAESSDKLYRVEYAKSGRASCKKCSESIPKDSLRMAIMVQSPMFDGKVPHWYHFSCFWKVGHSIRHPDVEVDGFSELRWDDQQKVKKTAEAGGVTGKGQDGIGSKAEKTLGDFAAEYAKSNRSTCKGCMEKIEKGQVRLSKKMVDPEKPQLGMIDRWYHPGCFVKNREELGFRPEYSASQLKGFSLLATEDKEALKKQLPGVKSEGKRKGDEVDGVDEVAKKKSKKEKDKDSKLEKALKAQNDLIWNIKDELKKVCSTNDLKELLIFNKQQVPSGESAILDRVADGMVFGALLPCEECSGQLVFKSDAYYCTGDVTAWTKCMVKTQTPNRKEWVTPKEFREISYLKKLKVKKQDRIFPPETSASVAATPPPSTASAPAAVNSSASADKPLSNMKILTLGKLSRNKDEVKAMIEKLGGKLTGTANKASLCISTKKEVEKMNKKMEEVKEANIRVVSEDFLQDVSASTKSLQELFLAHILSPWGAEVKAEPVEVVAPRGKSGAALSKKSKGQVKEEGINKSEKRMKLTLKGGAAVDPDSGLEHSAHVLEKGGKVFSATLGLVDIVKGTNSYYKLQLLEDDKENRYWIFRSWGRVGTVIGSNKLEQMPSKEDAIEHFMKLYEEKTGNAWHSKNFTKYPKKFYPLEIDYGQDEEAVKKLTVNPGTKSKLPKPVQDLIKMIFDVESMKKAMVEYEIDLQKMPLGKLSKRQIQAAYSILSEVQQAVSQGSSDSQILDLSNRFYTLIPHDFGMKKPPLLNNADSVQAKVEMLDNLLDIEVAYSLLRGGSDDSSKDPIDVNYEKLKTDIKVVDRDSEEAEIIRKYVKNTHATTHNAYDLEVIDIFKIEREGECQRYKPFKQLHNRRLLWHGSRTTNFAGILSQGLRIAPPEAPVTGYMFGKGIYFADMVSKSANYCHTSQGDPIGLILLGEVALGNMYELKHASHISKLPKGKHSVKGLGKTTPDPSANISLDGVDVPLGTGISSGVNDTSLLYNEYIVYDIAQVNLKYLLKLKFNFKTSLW

The assay addresses Poly [ADP-ribose] polymerase 1 (Homo sapiens, UniProt P09874). As to the kind of experiment: PARP1 Enzyme Activity Assay.
Protocol: The histone solution in the kit was diluted 5× with 1×PBS, and 25 μL of the diluted histone solution was added to a microwell plate and incubated overnight at 4° C. After the incubation, the plate was washed three times with PBST (0.05% Tween-20). 100 μL of the blocking solution was added to the microwell plate and incubated at 25° C. for 90 minutes. After the incubation, the plate was washed three times with PBST. 2.5 μL of compounds at different concentrations diluted in test buffer and 12.5 μL of substrate mixed solution (1.25 μL 10×PARP test buffer; 1.25 μL 10×PARP test mixed solution; 2.5 μL Activated DNA, 7.5 μL double-distilled water) were added to the microwell plate. The PARP1 enzyme was diluted to 2 ng/μL, 10 μL of the diluent was added to the microwell plate, and the reaction system was incubated at 25° C. for 60 minutes.After the incubation, the plate was washed three times with PBST. Streptavidin-HRP was diluted 50× with a blocking solution, and 25 μL of the diluent was added to the microwell plate and incubated at 25° C. for 30 minutes. After the incubation, the plate was washed three times with PBST. ELISA ECL substrate A and substrate B were mixed at a ratio of 1:1 (v/v), 50 μL of the mixture was added to the microwell plate, and the chemiluminescence value was read.
The IC50 is the concentration that gives 50% inhibition. `CCC1=CC2N=CC(CN3CCN(c4ccc(C(=O)NC5CCC5)nc4)CC3)CC2NC1=O` (stereo not drawn) [US20240400586, Compound 10] displayed an IC50 of 560 pM. That is a sub-nanomolar value.

Regarding `CCC1CC2N=CC(CN3CCN(C4C=CC(C(=O)N[C@@H]5C[C@@H]5F)=NC4)CC3)=CC2NC1=O` (stereo partly drawn) [US20240400586, Compound 11], the IC50 turned out to be 540 pM.

With `CCC1Cc2ncc(CN3CCN(C4CN5C=C(C)NC5C=N4)CC3)cc2NC1=O` (stereo not drawn) [US20240400586, Compound 15], inhibition was half-maximal at 650 pM (IC50).
